Results from ChEMBL document CHEMBL1201862, “PubChem BioAssay data set” (2004).
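How tested: cells in 96-well plates exposed to compound for 48 hours at five concentrations. GI50: concentration for 50% inhibition of growth.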 Active and inactive are the calls of the source. Rule as the data show it: active = GI50 up to about 1.1 µM and inactive = higher.

Tests used:
Assay in all cases: DTP human tumour cell line panel, 48 h
A498 = test system: A498
ACHN = test system: ACHN
CAKI-1 = test system: CAKI-1
CCRF-CEM = test system: CCRF-CEM
DMS-114 = test system: DMS-114
EKVX = test system: EKVX
HL-60 = test system: HL-60
HT-29 = test system: HT-29
Hs-578T = test system: Hs-578T
IGROV-1 = test system: IGROV-1
K562 = test system: K562
LOX IMVI = test system: LOX IMVI
LXFL 529 = test system: LXFL 529
MCF7 = test system: MCF7
NCI/ADR-RES = test system: NCI/ADR-RES
OVCAR-8 = test system: OVCAR-8
RXF 393 = test system: RXF 393
SF-539 = test system: SF-539
SK-MEL-28 = test system: SK-MEL-28
UO-31 = test system: UO-31

| SMILES | GI50 (A498) | GI50 (ACHN) | GI50 (CAKI-1) | GI50 (CCRF-CEM) | GI50 (DMS-114) | GI50 (EKVX) | GI50 (HL-60) | GI50 (HT-29) | GI50 (Hs-578T) | GI50 (IGROV-1) | GI50 (K562) | GI50 (LOX IMVI) | GI50 (LXFL 529) | GI50 (MCF7) | GI50 (NCI/ADR-RES) | GI50 (OVCAR-8) | GI50 (RXF 393) | GI50 (SF-539) | GI50 (SK-MEL-28) | GI50 (UO-31) |
| --- | --- | --- | --- | --- | --- | --- | --- | --- | --- | --- | --- | --- | --- | --- | --- | --- | --- | --- | --- | --- |
| C/C(=N\N)C(CN(C)C)C(c1ccccc1)c1c(O)c2ccccc2oc1=O (stereo not drawn) | > 100 µM (inactive) | 99.5 µM (inactive) | > 100 µM (inactive) | > 27 µM (inactive) | 51.9 µM (inactive) | > 70.8 µM (inactive) | > 26.7 µM (inactive) | > 100 µM (inactive) | > 100 µM (inactive) | > 100 µM (inactive) | > 60 µM (inactive) | > 94.4 µM (inactive) | > 100 µM (inactive) | > 100 µM (inactive) | > 100 µM (inactive) | > 100 µM (inactive) | > 55.6 µM (inactive) | > 100 µM (inactive) | > 100 µM (inactive) | > 100 µM (inactive) |
| COc1ccc2c(c1)CC1c3c(ccc(OC)c3O)CC2N1C (stereo not drawn) | > 100 µM (inactive) | 51.5 µM (inactive) | 40 µM (inactive) | 23.3 µM (inactive) | 19.7 µM (inactive) | 50.9 µM (inactive) | 16.2 µM (inactive) | 22.9 µM (inactive) |  | 44.1 µM (inactive) | 20.4 µM (inactive) | 23.9 µM (inactive) | 18.3 µM (inactive) |  |  | 34.2 µM (inactive) | 22.6 µM (inactive) | 24.7 µM (inactive) | 21 µM (inactive) | 30.8 µM (inactive) |
| CN(CC#N)C1CCCC[C@H]1O (stereo partly drawn) | > 100 µM (inactive) | > 100 µM (inactive) | > 100 µM (inactive) | > 100 µM (inactive) | > 100 µM (inactive) | > 100 µM (inactive) | > 100 µM (inactive) | > 100 µM (inactive) |  | > 100 µM (inactive) | > 100 µM (inactive) | > 100 µM (inactive) | > 100 µM (inactive) |  |  | > 100 µM (inactive) | > 100 µM (inactive) | > 100 µM (inactive) | > 100 µM (inactive) | > 100 µM (inactive) |
| CC1=C(CO)C(=O)OC(C(C)C2CCC3C4CC5OC56C(O)C(N5CC5)=CC(=O)C6(C)C4CCC23C)C1 (stereo not drawn) | 2.11 µM (inactive) | 5.74 µM (inactive) |  | 2.61 µM (inactive) | 2.13 µM (inactive) | 12.2 µM (inactive) | 1.61 µM (inactive) | 3.94 µM (inactive) |  | 3.47 µM (inactive) | 3.59 µM (inactive) | 14 µM (inactive) | 4.32 µM (inactive) |  |  | 2.2 µM (inactive) | 12 µM (inactive) | 3.66 µM (inactive) | 16 µM (inactive) | 12.9 µM (inactive) |
| COc1cc2ccc(CC#N)cc2cc1OC | > 100 µM (inactive) | > 100 µM (inactive) | 45.9 µM (inactive) | > 100 µM (inactive) | > 100 µM (inactive) | 83.8 µM (inactive) | > 100 µM (inactive) | > 100 µM (inactive) |  |  | > 100 µM (inactive) | > 100 µM (inactive) | > 100 µM (inactive) |  |  | > 100 µM (inactive) | > 100 µM (inactive) | > 100 µM (inactive) | > 100 µM (inactive) | > 100 µM (inactive) |
| CN(C)c1ccc(/C=c2\sc3nnc(Cc4ccccc4)n3c2=O)cc1 | > 10 µM (inactive) | 75.3 µM (inactive) | > 10 µM (inactive) | > 10 µM (inactive) | 17 µM (inactive) | > 10 µM (inactive) | > 10 µM (inactive) | 62.5 µM (inactive) |  | > 10 µM (inactive) | > 10 µM (inactive) | > 10 µM (inactive) | > 10 µM (inactive) |  |  | > 10 µM (inactive) | 31.8 µM (inactive) | > 10 µM (inactive) | > 10 µM (inactive) | > 100 µM (inactive) |
| O=C(Oc1ccc(Cl)cc1[N+](=O)[O-])c1ccccc1 | > 100 µM (inactive) | > 100 µM (inactive) |  | 73.6 µM (inactive) | > 100 µM (inactive) | > 100 µM (inactive) | 65.6 µM (inactive) | > 100 µM (inactive) |  | > 100 µM (inactive) | > 100 µM (inactive) | > 100 µM (inactive) | > 100 µM (inactive) |  |  | > 100 µM (inactive) | 24.1 µM (inactive) | > 100 µM (inactive) | > 100 µM (inactive) | 86.5 µM (inactive) |
| CC(=O)N/C(=C\c1cccc([N+](=O)[O-])c1)c1nc2ccc3c(c2[nH]1)C(=O)c1ccccc1C3=O | 22.8 µM (inactive) | 4.37 µM (inactive) | 11.7 µM (inactive) | 0.885 µM (active) | > 37.5 µM (inactive) | 12.7 µM (inactive) | 2.76 µM (inactive) | > 100 µM (inactive) |  | 10.4 µM (inactive) | 23.9 µM (inactive) | 13.3 µM (inactive) | 29.3 µM (inactive) |  |  | 43.6 µM (inactive) | 22.8 µM (inactive) | 42 µM (inactive) | > 100 µM (inactive) | 3.62 µM (inactive) |
| CCOc1ccc2nc(NC(=O)c3c/c(=N\NC(=O)C[N+](C)(C)C)c4ccc(O)cc4o3)sc2c1 | 14.6 µM (inactive) | 4.52 µM (inactive) | 6.04 µM (inactive) | 1.6 µM (inactive) | 1.91 µM (inactive) | 4.44 µM (inactive) | 1.59 µM (inactive) | 3.56 µM (inactive) |  | 2.65 µM (inactive) | 1.92 µM (inactive) | 1.14 µM (inactive) | 2.02 µM (inactive) |  |  | 2.14 µM (inactive) | 5.87 µM (inactive) | 3.85 µM (inactive) | 5.75 µM (inactive) | 11.8 µM (inactive) |
| C[Si](C)(C)C(Sc1ccccc1)(Sc1ccccc1)Sc1ccccc1 | 76.9 µM (inactive) | 43 µM (inactive) | > 100 µM (inactive) | 24 µM (inactive) | 54.8 µM (inactive) | 95.5 µM (inactive) | 35.2 µM (inactive) |  |  |  | > 100 µM (inactive) | 58.5 µM (inactive) | 81.5 µM (inactive) |  |  | > 100 µM (inactive) | 29.4 µM (inactive) | > 100 µM (inactive) | 46.7 µM (inactive) | > 100 µM (inactive) |
| CC[C@H](C)[C@H]1NC(=O)C(C(C)=O)=C1O | > 100 µM (inactive) | > 100 µM (inactive) | > 100 µM (inactive) | 52.2 µM (inactive) | 76.7 µM (inactive) | > 100 µM (inactive) | 99.8 µM (inactive) | > 100 µM (inactive) |  | > 100 µM (inactive) | > 100 µM (inactive) | 62.4 µM (inactive) | 66.5 µM (inactive) |  |  | > 100 µM (inactive) | 23.3 µM (inactive) | > 100 µM (inactive) | 64 µM (inactive) | > 100 µM (inactive) |
| COC(=O)C1=C(C(=O)OC)C2(OC(C)=O)c3ccccc3-c3ccccc3C12 (stereo not drawn) | 18.1 µM (inactive) | 2.54 µM (inactive) | 2.16 µM (inactive) | 0.733 µM (active) | 5.37 µM (inactive) | 10.6 µM (inactive) | 4.85 µM (inactive) | 5.47 µM (inactive) |  | 3.74 µM (inactive) | 1.83 µM (inactive) | 5.09 µM (inactive) | 1.7 µM (inactive) |  |  | 5.93 µM (inactive) | 4.8 µM (inactive) | 17.2 µM (inactive) | 5.27 µM (inactive) | 4.68 µM (inactive) |
| CC(C)Cc1ccc(C(C)/C=C2\CCC(CN3CCCC3)C2=O)cc1 (stereo not drawn) | 21.6 µM (inactive) | 11.7 µM (inactive) | 13.6 µM (inactive) | 2.22 µM (inactive) | 3.8 µM (inactive) | 18.2 µM (inactive) | 1.89 µM (inactive) | 8.09 µM (inactive) |  | 5.74 µM (inactive) | 3.91 µM (inactive) | 2.88 µM (inactive) | 2.15 µM (inactive) |  |  | 7.01 µM (inactive) | 18.8 µM (inactive) | 5.81 µM (inactive) | 14.6 µM (inactive) | 15.9 µM (inactive) |
| Cc1ccc(-c2cc(-c3ccccc3)c(C#N)c(=O)n2C2OC(CO)C(O)C(O)C2O)cc1 (stereo not drawn) | > 100 µM (inactive) | > 100 µM (inactive) |  | > 100 µM (inactive) | > 100 µM (inactive) | > 100 µM (inactive) | > 100 µM (inactive) | > 100 µM (inactive) |  | > 100 µM (inactive) | 86.7 µM (inactive) | > 100 µM (inactive) | > 100 µM (inactive) |  |  | > 100 µM (inactive) | > 100 µM (inactive) | > 100 µM (inactive) | > 100 µM (inactive) | > 100 µM (inactive) |
| O=C(CC1(O)C(=O)Nc2c(Cl)cc(Cl)cc21)c1ccc2ccccc2c1 (stereo not drawn) | 11.3 µM (inactive) | 14.4 µM (inactive) | 5.7 µM (inactive) | 10.2 µM (inactive) | 4.69 µM (inactive) | 9.77 µM (inactive) | 3.18 µM (inactive) | 5.25 µM (inactive) |  | 10.9 µM (inactive) | 3.18 µM (inactive) | 10.5 µM (inactive) | 9.16 µM (inactive) |  |  | 10.6 µM (inactive) | 8.17 µM (inactive) | 8.17 µM (inactive) | 10.7 µM (inactive) | 11.5 µM (inactive) |
| CCOC(=O)C1(C)CCC(C(C(=O)O)C(=O)O)CC1=O (stereo not drawn) | > 100 µM (inactive) | > 100 µM (inactive) | > 100 µM (inactive) | > 100 µM (inactive) | > 100 µM (inactive) | > 100 µM (inactive) | > 100 µM (inactive) | > 100 µM (inactive) |  | > 100 µM (inactive) |  | > 100 µM (inactive) | > 100 µM (inactive) |  |  | > 100 µM (inactive) | > 100 µM (inactive) | > 100 µM (inactive) | > 100 µM (inactive) | > 100 µM (inactive) |
